Consider 1 compound from patent publication US9416115B2, “Fused heterocyclic compounds as ion channel modulators” (Gilead Sciences, Inc., priority 2013, dated 2016).

In data set [1] the test system is Ischemia-Induced ST Segment Elevation in Anesthetized Rabbits. Description: Ischemia-induced ST segment elevation in anesthetized rabbits. Format: in vivo, New Zealand rabbits. Conditions: iv infusion; 15 min LAD ischemia after 30 min of compound administration. The protocol:
This study was undertaken to determine the anti-ischemic effects of compounds of the present disclosure in an in vivo rabbit model.
Female New Zealand rabbits (3.0-4.0 kg) were purchased from Western Oregon Rabbitry. Animals were housed on a 12-h light and dark cycle and received standard laboratory chow and water. All experiments were performed in accordance with the Guide for the Care and Use of Laboratory Animals published by The National Research Council and with the experimental protocol approved by the Institutional Animal Care Committee of Gilead Sciences, Inc.
(§1) Rabbits were anesthetized with ketamine (35 mg/kg) and xylazine (5 mg/kg) intramuscular injection (im). A tracheotomy was performed and the trachea was intubated with an endotracheal tube. The animal was ventilated with room air supplemented with oxygen using a pressure control animal ventilator (Kent Scientific Corp., Torrington, Conn.) at a respiratory rate of 40 strokes/min and peak inspiration pressure of 10 mmH2O, which was adjusted to keep blood gases and pH within the physiological range (iSTAT clinic analyzer, Heska Corp.; Waukesha, Wis.). The left femoral artery was cannulated for the measurement of blood pressure (BP). Blood samples were also withdrawn from femoral artery. The right external jugular vein was cannulated for drug/vehicle administration. Needle electrodes were inserted subcutaneously into the limbs for recording of the surface electrocardiogram (ECG).
The heart was exposed via an incision in the 4th intercostal space (4th and/or 5th ribs were cut for a clear surgical vision). The chest was opened and a pericardial cradle was formed using 4 retractors. A coronary artery occluder, comprised of a snare made of 5 cm PE-10 tubing with a 6-0 Prolene polypropylene suture in it, was placed loosely around the left anterior descending artery (LAD) at its origin. Two unipolar electrodes, made with teflon coated silver wire attached to a small patch of filter paper, were attached on the surface of the ischemic and normal regions of the left ventricle to record epicardial electrocardiogram.
(§2) Reference electrodes were placed in the open incision of the neck. The body temperature of the animal was monitored via a rectal thermometer and maintained at 37-40° C. by adjusting the surface temperature of the surgical table. Regional ischemia (15 min) was induced by ligating the LAD followed by 15 min of reperfusion caused by releasing the ligation. The heart was excised at the end of the experiment and the LAD was re-ligated. The ischemic area was visualized by perfusing the heart with 1% Evans blue in saline and calculated as a percentage of total ventricular weight. Rabbits with ischemic area less than 10% or larger than 25% were excluded from the analysis. Animals were randomly assigned to vehicle and test compound groups. Test compounds were dissolved in 15% NMP, 10% Solutol and 75% de-ionized water (dH2O). Test compounds were given as an iv infusion at a rate targeted to reach plasma concentrations of 1 μM. After 30 min of compound administration the heart was subjected to 15 min of ischemia followed by 15 min of reperfusion.

A short description of data set [2]: Plasma concentration in the rabbit ischemia study. Format: in vivo, New Zealand rabbits. The note with it: iv infusion targeted to 1 uM plasma. The procedure:
as §1, §2

In the case of `FC(F)(F)COc1ccc(-c2ccc3onc(OCc4ncccn4)c3c2)cn1` [Example 21, 3-(pyrimidin-2-ylmethoxy)-5-(6-(2,2,2-trifluoroethoxy)pyridin-3-yl)benzo[d]isoxazole], the “Rabbit ST Segment (Percent reduction)” value in data set [1] was 66 Percent reduction. This compound also gave a Plasma concentration in data set [2] of 400 nM.
